The source made the active and inactive calls. No cut-off for these calls is given here.
Key:
Homo sapiens [1] = species: Homo sapiens; test: Neutralization of dalteparin sodium in human poor platelet plasma at 10 to 50 ug/ml by aPTT assay relative to control; format: cell-free; details: dose 10-50 µg/ml
Homo sapiens [2] = species: Homo sapiens; test: Neutralization of enoxaparin sodium in human poor platelet plasma at 10 to 50 ug/ml by aPTT assay relative to control; format: cell-free; details: dose 10-50 µg/ml
Bos taurus [3] = species: Bos taurus; test: Neutralization of unfractionated heparin in bovine plasma at 10 to 60 ug/ml by aPTT assay; format: cell-free; details: dose 10-60 µg/ml
Bos taurus [4] = species: Bos taurus; test: Neutralization of dalteparin sodium in bovine plasma at 10 to 60 ug/ml by aPTT assay; format: cell-free; details: dose 10-60 µg/ml
Bos taurus [5] = species: Bos taurus; test: Neutralization of enoxaparin sodium in bovine plasma at 10 to 60 ug/ml by aPTT assay; format: cell-free; details: dose 10-60 µg/ml
Bos taurus [6] = species: Bos taurus; test: Neutralization of nadroparin calcium in bovine plasma at 10 to 60 ug/ml by aPTT assay; format: cell-free; details: dose 10-60 µg/ml
[7] = Acute toxicity in iv dosed ICR mouse assessed as maximum tolerated dose measured after 7 days; format: organism-based; details: in vivo, time 7 day
[8] = Binding affinity to unfractionated heparin in saline at pH 7.4 assessed as binding constant by ITC analysis
[9] = Binding affinity to nadroparin calcium in saline at pH 7.4 assessed as binding constant by ITC analysis
[10] = Binding affinity to enoxaparin sodium in saline at pH 7.4 assessed as change in enthalpy by ITC analysis
[11] = Binding affinity to unfractionated heparin in saline at pH 7.4 assessed as change in entropy by ITC analysis
[12] = Binding affinity to unfractionated heparin in saline at pH 7.4 assessed as change in gibbs free energy by ITC analysis
[13] = Binding affinity to dalteparin sodium in saline at pH 7.4 assessed as change in gibbs free energy by ITC analysis
Blood [14] = test: Ex vivo neutralization of dalteparin sodium in Sprague-Dawley rat whole blood assessed as restoration of blood coagulation at 10 to 15 ug/ml incubated for 15 mins; format: functional, tissue-based; details: dose 10-15 µg/ml
Blood [15] = test: Ex vivo neutralization of enoxaparin sodium in Sprague-Dawley rat whole blood assessed as restoration of blood coagulation at 10 to 15 ug/ml incubated for 15 mins; format: functional, tissue-based; details: dose 10-15 µg/ml
Homo sapiens [16] = species: Homo sapiens; test: Reversal of anticoagulation of unfractionated heparin in human whole blood assessed as restoration of normal clotting time at 5 to 20 ug/ml incubated for 5 mins by thromboelastography; format: tissue-based; details: dose 5-20 µg/ml
Homo sapiens [17] = species: Homo sapiens; test: Reversal of anticoagulation of enoxaparin sodium in human whole blood assessed as restoration of normal clotting time at 5 to 20 ug/ml incubated for 5 mins by thromboelastography; format: tissue-based; details: dose 5-20 µg/ml
Homo sapiens [18] = species: Homo sapiens; test: Reversal of anticoagulation of nadroparin calcium in human whole blood assessed as restoration of normal clotting time at 5 to 20 ug/ml incubated for 5 mins by thromboelastography; format: tissue-based; details: dose 5-20 µg/ml
Homo sapiens [19] = species: Homo sapiens; test: Reversal of anticoagulation of dalteparin sodium in human whole blood assessed as restoration of normal coagulation rate at 5 to 20 ug/ml incubated for 5 mins by thromboelastography; format: tissue-based; details: dose 5-20 µg/ml
Homo sapiens [20] = species: Homo sapiens; test: Reversal of anticoagulation of enoxaparin sodium in human whole blood assessed as restoration of normal coagulation rate at 5 to 20 ug/ml incubated for 5 mins by thromboelastography; format: tissue-based; details: dose 5-20 µg/ml
Homo sapiens [21] = species: Homo sapiens; test: Reversal of anticoagulation of nadroparin calcium in human whole blood assessed as restoration of normal coagulation rate at 5 to 20 ug/ml incubated for 5 mins by thromboelastography; format: tissue-based; details: dose 5-20 µg/ml
Homo sapiens [22] = species: Homo sapiens; test: Reversal of anticoagulation of dalteparin sodium in human whole blood assessed as restoration of normal clotting strength at 2 to 20 ug/ml incubated for 5 mins by thromboelastography; format: tissue-based; details: dose 2-20 µg/ml
Homo sapiens [23] = species: Homo sapiens; test: Reversal of anticoagulation of enoxaparin sodium in human whole blood assessed as restoration of normal clotting strength at 2 to 20 ug/ml incubated for 5 mins by thromboelastography; format: tissue-based; details: dose 2-20 µg/ml
Homo sapiens [24] = species: Homo sapiens; test: Reversal of anticoagulation of […] in human whole blood assessed as restoration of normal clotting strength at 2 to 20 ug/ml incubated for 5 mins by thromboelastography; format: tissue-based; details: dose 2-20 µg/ml
Homo sapiens [25] = species: Homo sapiens; test: Reversal of anticoagulation of unfractionated heparin in human whole blood assessed as minimum effective dose incubated for 5 mins by thromboelastography; format: tissue-based
Homo sapiens [26] = species: Homo sapiens; test: Reversal of anticoagulation of dalteparin sodium in human whole blood assessed as minimum effective dose incubated for 5 mins by thromboelastography; format: tissue-based
Homo sapiens [27] = species: Homo sapiens; test: Reversal of anticoagulation of enoxaparin sodium in human whole blood assessed as minimum effective dose incubated for 5 mins by thromboelastography; format: tissue-based
Mus musculus [28] = test: In vivo antagonism of unfractionated heparin induced anticoagulation in ICR mouse assessed as blood loss at 0.4 mg/kg, iv administered via tail vein pretreated with heparin for 5 mins followed by compound addition and measured after 5 mins (reference value: 324.4 +/- 139.5 microL); format: functional
Mus musculus [29] = test: In vivo antagonism of dalteparin sodium induced anticoagulation in ICR mouse assessed as blood loss at 0.4 mg/kg, iv administered via tail vein pretreated with heparin for 5 mins followed by compound addition and measured after 5 mins (reference value: 324.4 +/- 139.5 microL); format: functional
Rattus norvegicus [30] = test: In vivo antagonism of enoxaparin sodium induced anticoagulation in Sprague-Dawley rat assessed as clotting time at 0.4 mg/kg, iv administered via tail vein pretreated with enoxaparin sodium for 5 mins followed by compound addition and measured after 2.5 mins by thromboelastography; format: functional
Rattus norvegicus [31] = test: In vivo antagonism of enoxaparin sodium induced anticoagulation in Sprague-Dawley rat assessed as restoration of normal clotting time at 1 mg/kg, iv administered via tail vein pretreated with enoxaparin sodium for 5 mins followed by compound addition and measured after 2.5 mins by thromboelastography; format: functional, organism-based
[32] = Cytotoxicity against human MCF7 cells assessed as cell viability at 300 ug/ml incubated for 24 hrs by CCK-8 assay relative to control; format: toxicity, cell-based; details: at 300 µg/mL, read-out: Activity
[33] = Toxicity in iv dosed ICR mouse assessed as maximum tolerated dose administered through tail vein; format: organism-based; details: in vivo
[34] = Toxicity in ICR mouse assessed as effect on animal activity at 25 mg/kg, iv administered as single dose through tail vein and measured on day 2; format: organism-based; details: in vivo, 48 h, time 2 day
[35] = Toxicity in ICR mouse assessed as effect on animal activity at 0.4 to 25 mg/kg, iv administered as single dose through tail vein and measured after 3 to 14 days; format: organism-based; details: in vivo, dose lower 0.4 mg/kg, time lower 3 day, dose upper 25 mg/kg, time upper 14 day
[36] = Toxicity in ICR mouse assessed as histopathological changes in liver at 25 mg/kg, iv administered as single dose through tail vein and measured after 14 days by H and E staining based analysis; format: organism-based; details: in vivo, 336 h, time 14 day
[37] = Toxicity in ICR mouse assessed as histopathological changes in lungs at 25 mg/kg, iv administered as single dose through tail vein and measured after 14 days by H and E staining based analysis; format: organism-based, Lung; details: in vivo, 336 h, time 14 day
[38] = Toxicity in Sprague-Dawley rat assessed as abnormal index of microalbumin at 25 mg/kg, iv measured after 5 hrs; format: organism-based; details: in vivo
Erythrocyte [39] = test: Hemolytic activity in human red blood cells at 512 ug/ml; format: toxicity, cell-based; details: dose 512 µg/ml
Erythrocyte [40] = test: Hemolytic activity in Sprague-Dawley rat red blood cells at 512 ug/ml; format: toxicity, cell-based; details: dose 512 µg/ml

NCCOc1ccc(-c2cc[n+](Cc3ccc(C(c4ccc(C[n+]5ccc(-c6ccc(OCCN)c(OCCN)c6)cc5)cc4)(c4ccc(C[n+]5ccc(-c6ccc(OCCN)c(OCCN)c6)cc5)cc4)c4ccc(C[n+]5ccc(-c6ccc(OCCN)c(OCCN)c6)cc5)cc4)cc3)cc2)cc1OCCN.[Cl-].[Cl-].[Cl-].[Cl-]
Activity (Homo sapiens [1]): 99%
Activity (Homo sapiens [2]): 97%
Activity (Bos taurus [3]): Active
Activity (Bos taurus [4]): Active
Activity (Bos taurus [5]): Active
Activity (Bos taurus [6]): Active
MTD at 168 h [7]: 25 mg/kg
Ka [8]: 2.92e+07 M⁻¹
Ka [9]: 1.87e+07 M⁻¹
deltaH [10]: -7.86 kcal/mol
-TdeltaS [11]: -4.32 kcal/mol
deltaG [12]: -10.2 kcal/mol
deltaG [13]: -10.5 kcal/mol
Activity (Blood [14]): Active
Activity (Blood [15]): Active
Activity (Homo sapiens [16]): Active
Activity (Homo sapiens [17]): Active
Activity (Homo sapiens [18]): Active
Activity (Homo sapiens [19]): Active
Activity (Homo sapiens [20]): Active
Activity (Homo sapiens [21]): Active
Activity (Homo sapiens [22]): Active
Activity (Homo sapiens [23]): Active
Activity (Homo sapiens [24]): Active
MED (Homo sapiens [25]): 4 µg/mL
MED (Homo sapiens [26]): 4 µg/mL
MED (Homo sapiens [27]): 4 µg/mL
Activity (Mus musculus [28]): 26.1 µL
Activity (Mus musculus [29]): 26 µL
Time (Rattus norvegicus [30]): 3.63 min
Activity (Rattus norvegicus [31]): Active
viability at 24 h, 300 ug/ml [32]: > 80%
MTD [33]: 25 mg/kg
Activity [34]: Toxic
Activity [35]: Non-Toxic
Activity [36]: Non-Toxic
Activity [37]: Non-Toxic
Activity [38]: Toxic
Activity (Erythrocyte [39]): Non-Toxic
Activity (Erythrocyte [40]): Non-Toxic

From ChEMBL document CHEMBL5518209, “Caltrop-like Small-Molecule Antidotes That Neutralize Unfractionated Heparin and Low-Molecular-Weight Heparin In Vivo” (J Med Chem, 2024)
